Source: PMC3273346, “BPR1J-097, a novel FLT3 kinase inhibitor, exerts potent inhibitory activity against AML” (British Journal of Cancer, 2011)
Entries after “also recorded” stand apart in the source; their conditions may differ.

Tests used:
[1] = tested on: MOLM-13 cells; experiment: Cellular proliferation assay (MTS), MOLM-13; format: cell-based; conditions: Homo sapiens, AML-FLT3-ITD (heterozygous), 72 h, mean±s.d. of three experiments
Protocol: (§1) MOLM-13 cells were purchased from the Deutsche Sammlung von Microorganismen und Zellkulturen GmbH (Braunschweig, Germany). RS4;11, MV4-11, U937, and K562 cell lines were obtained from the American Type Culture Collection (ATCC, Manassas, VA, USA). […] HEK293T- and FLT3-transfected HEK293T cells were cultured in DMEM (Invitrogen) medium with 10% FBS.
(§2) Proliferation assays were performed by seeding 10 000 cells per well in a 96-well culture plate. […] Cell viability was quantitated using the MTS method (Promega) according to the manufacturer's recommended protocol. The results were determined by measuring absorbance at 490 nm using a plate reader (Victor2; Perkin-Elmer).

[2] = tested on: MV4-11 cells; experiment: Cellular proliferation assay (MTS), MV4-11; format: cell-based; conditions: Homo sapiens, AML-FLT3-ITD (homozygous), 72 h, mean±s.d. of three experiments
Protocol: as §1, §2

[3] = tested on: U937 cells; experiment: Cellular proliferation assay (MTS), U937; format: cell-based; conditions: Homo sapiens, U-937, AML-FLT3-negative, 72 h, mean±s.d. of three experiments
Protocol: as §1, §2

[4] = tested on: RS4;11 cells; experiment: Cellular proliferation assay (MTS), RS4;11; format: cell-based; conditions: Homo sapiens, RS4-11, 72 h, read-out: Proliferation GI50, RS4;11
Protocol: as §1, §2

[5] = tested on: K562 cells; experiment: Cellular proliferation assay (MTS), K562; format: cell-based; conditions: Homo sapiens, CML-Bcr-Abl FLT3-negative, 72 h, mean±s.d. of three experiments
Protocol: as §1, §2

[6] = tested on: FLT3-WT; parameters: method as in Shankar et al (2007); conditions: previously reported; ref Shankar et al (2007); read-out: IC50 for inhibition of FLT3-WT; cited from earlier work
[7] = tested on: MOLM-13 xenograft tumours; parameters: method as in Shankar et al, 2007; conditions: ref Shankar et al, 2007; cited from earlier work

Structure (SMILES): Cc1ccc(F)c(NC(=O)Nc2ccc(-c3cccc4[nH]nc(N)c34)cc2)c1 [ABT-869]
- GI50 [1]: 38 ± 14 nM
- GI50 [2]: 82 ± 17 nM
- GI50 [3]: > 18000 nM
- GI50 [4]: 9200 ± 2700 nM
- GI50 [5]: > 20000 nM
- IC50 [6]: 4 nM
- Effect on MOLM-13 xenograft tumours [7]: unable to shrink the MOLM-13 xenograft tumours; also recorded: not able to produce regressions of tumours
